# Patent US20260364080A1, “PYRAZOLO-PYRIMIDINONE COMPOUNDS FOR USE IN METHODS OF INHIBITING WEE1 A KINASE” (Acrivon Therapeutics, Inc., priority 2023, published 2026)
# pEC50, pIC50: −log10 of the molar value.
# Assays:
# [1] = target: T1, recombinant human Wee1A kinase (Homo sapiens, UniProt P30291); assay: Wee1A kinase binding assay (LanthaScreen Eu time-resolved FRET); conditions: 30 nM tracer 178, 5 nM Wee1A kinase, 2 nM Eu-labeled antibody; 60 minutes at room temperature; read-out: Wee1A kinase Binding IC50
# T1 construct: full length Wee1 kinase was expressed by baculovirus in insect cells; purchased Invitrogen PV3817; host or cells: insect cells (baculovirus)
# T1 sequence (P30291 whole entry): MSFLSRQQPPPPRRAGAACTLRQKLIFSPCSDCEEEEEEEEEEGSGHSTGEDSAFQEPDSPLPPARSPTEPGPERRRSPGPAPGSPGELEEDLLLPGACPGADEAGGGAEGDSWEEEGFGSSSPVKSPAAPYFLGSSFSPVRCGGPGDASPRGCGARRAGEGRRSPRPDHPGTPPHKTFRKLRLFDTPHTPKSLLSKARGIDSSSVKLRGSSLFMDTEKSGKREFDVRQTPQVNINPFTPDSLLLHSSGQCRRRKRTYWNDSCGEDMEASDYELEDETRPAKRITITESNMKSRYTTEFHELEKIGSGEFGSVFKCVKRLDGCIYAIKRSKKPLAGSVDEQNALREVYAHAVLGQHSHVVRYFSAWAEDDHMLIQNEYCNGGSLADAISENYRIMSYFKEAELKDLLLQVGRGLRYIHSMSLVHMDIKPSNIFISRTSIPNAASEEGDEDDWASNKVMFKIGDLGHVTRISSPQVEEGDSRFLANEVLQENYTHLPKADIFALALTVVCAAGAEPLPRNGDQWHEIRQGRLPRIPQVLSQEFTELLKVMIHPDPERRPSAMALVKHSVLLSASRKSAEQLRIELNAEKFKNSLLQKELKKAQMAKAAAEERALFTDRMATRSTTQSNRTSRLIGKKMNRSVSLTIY
# In short: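 Full-length, baculovirus-expressed GST-tagged Wee1A (5 nM) was mixed with 2 nM Eu-anti-GST antibody, 30 nM kinase tracer 178 and compound (1% DMSO). Buffer was 50 mM HEPES pH 7.5, 10 mM MgCl2, 1 mM EGTA, 0.01% Brij-35, incubated 60 min at room temperature. TR-FRET 665/615 nm emission ratios from duplicates were curve-fitted.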
# [2] = target: T2, Wee1A kinase (CDK1 Tyr15 phosphorylation in ACHN renal cell carcinoma cells) (Homo sapiens, UniProt P30291); assay: High-content imaging of pCdk1 Y15, Wee1A kinase target engagement in ACHN cells; format: cell-based; conditions: 4 h treatment, nuclear positivity for pCdk1 Y15 vs DMSO control, read-out: CDK1 Tyr15 Phosphorylation EC50
# T2 construct: pCDK1 Tyr15 immunofluorescence read-out
# T2 sequence (P30291 whole entry): as above
# In short: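 EC50 values come from the per-well fraction of cells with nuclear pCdk1 Y15 staining, normalised to DMSO control, by automated immunofluorescence imaging. Cells were ACHN renal carcinoma, treated 4 h with compound at 7–5,000 nM or 0.3–200 nM.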
# [3] = target: T3, Myt1 kinase (recombinant PMYT-1) (Homo sapiens, UniProt Q99640); assay: Myt1 kinase binding assay (LanthaScreen Eu Kinase Binding Assay); conditions: 3 nM tracer 178, 2.5 nM PMYT-1, 1 nM Eu-labeled antibody; read-out: Myt1 kinase Binding IC50
# T3 construct: full length PMYT-1 was expressed by baculovirus in insect cells; purchased Invitrogen A30984; host or cells: insect cells (baculovirus)
# T3 sequence (Q99640 1-499): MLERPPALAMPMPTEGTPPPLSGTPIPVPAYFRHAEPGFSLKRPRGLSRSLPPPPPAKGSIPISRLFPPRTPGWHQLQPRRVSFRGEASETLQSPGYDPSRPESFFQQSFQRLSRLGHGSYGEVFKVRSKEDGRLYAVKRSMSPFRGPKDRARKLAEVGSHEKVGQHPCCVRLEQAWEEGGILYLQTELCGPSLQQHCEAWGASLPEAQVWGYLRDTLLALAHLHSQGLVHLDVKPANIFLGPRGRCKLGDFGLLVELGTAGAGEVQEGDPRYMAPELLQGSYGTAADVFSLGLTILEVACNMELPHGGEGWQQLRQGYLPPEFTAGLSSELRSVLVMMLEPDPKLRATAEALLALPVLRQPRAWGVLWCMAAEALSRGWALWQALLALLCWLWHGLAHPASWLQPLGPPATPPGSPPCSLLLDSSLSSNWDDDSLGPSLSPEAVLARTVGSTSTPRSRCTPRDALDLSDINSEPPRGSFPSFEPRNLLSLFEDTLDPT
# In short: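 Compound binding to Myt1 kinase was assessed using the LanthaScreen Eu Kinase Binding Assay. This europium-based binding format was applied to quantify how strongly each compound bound to the Myt1 enzyme, and the binding affinity was reported for each compound as an IC50 value.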
# [4] = target: T4, Myt1 kinase (CDK1 Thr14 phosphorylation in ACHN renal cell carcinoma cells) (Homo sapiens, UniProt Q99640); assay: AlphaLISA assay, Myt1 kinase target engagement (phospho-CDK1 Thr14) in ACHN cells; format: cell-based; conditions: ACHN cells (marked *); 4 h treatment
# T4 construct: pCDK1 Thr14 AlphaLISA read-out
# T4 sequence (Q99640 1-499): T3 sequence (Q99640 1-499)
# Method: Each of an ACHN renal cell carcinoma cell line (ATCC) and a DAOY medulloblastoma cell line, and an A427 lung cancer line were cultured in Minimum Essential Medium Eagle supplemented with 10% fetal calf serum (Sigma), 1% Penicillin-Streptomycin and 10 mM HEPES buffer (HyClone). Cell cultures were kept in a humidified incubator at 37 °C and 5% CO2. Cells were routinely tested for Mycoplasma contamination.
# For target engagement assessment of Myt1 kinase inhibition, quantification of Cdk1 phosphorylated on threonine 14 was detected using the AlphaLISA® SureFire® Ultra™ Human Phospho-CDK1 (Thr14) assay (Perkin Elmer). DAOY or ACHN cells were seeded into tissue culture treated 96-well plates (VWR) to a density of 10,000 or 20,000 cells per well respectively. 24 h post seeding cells were treated for 4 h with compounds at concentrations ranging from 7 to 5000 nM. Cells were washed with PBS and lysed in 50 μl AlphaLISA lysis buffer before freezing at −80 C. Ten ul of the lysate was transferred to 384 well plates and incubated with AlphaLISA donor and acceptor beads according to the manufacturer's instructions. Dose response curves and EC50 values were calculated and visualized using GraphPad Prism version 9. Target engagement for Myt1 kinase can also be measured using the same AlphaLISA assay in OVCAR3 cells, an ovarian cancer cell line. NIH:OVCAR-3 (OVCAR3) cells are cultured in RPMI-1640 medium supplemented with 0.01 mg/ml insulin, 20% FBS, 1% Penicillin-Streptomycin and 10 mM HEPES buffer. 14,000 cells per well are seeded into 96 well tissue culture plates in full medium. Twenty-four hours post seeding, cells are treated with compound for 4 hours at concentrations ranging from 0.017 nM to 1000 nM.
# [5] = target: T5, Myt1 kinase (CDK1 Thr14 phosphorylation in DAOY medulloblastoma cells) (Homo sapiens, UniProt Q99640); assay: AlphaLISA assay, Myt1 kinase target engagement (phospho-CDK1 Thr14) in DAOY cells; format: cell-based; conditions: 4 h treatment, read-out: CDK1 Thr14 Phosphorylation EC50
# T5 construct: pCDK1 Thr14 AlphaLISA read-out
# T5 sequence (Q99640 1-499): T3 sequence (Q99640 1-499)
# In short: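 Cells seeded at 10,000 (DAOY) or 20,000 (ACHN) per well, treated 24 h later for 4 h with compound at 7–5000 nM. Lysates analysed by AlphaLISA SureFire Ultra phospho-CDK1 (Thr14) with donor/acceptor beads; EC50 from dose-response curves.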
# [6] = tested on: ACHN cells; assay: Cell Titer Glo viability assay, ACHN cells; format: cell-based; conditions: Homo sapiens, 144 h, absolute EC50
# In short: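 Cells grown in MEM with 10% FCS were seeded at 500 (A427), 400 (ACHN) or 250 (DAOY) per well and treated the next day with compound at 17 to 10 000 nM. Viability relative to untreated control was read at 144 h by CellTiter-Glo 2.0.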
SMILES,pIC50 [1],pEC50 [2],pIC50 [3],pEC50 [4],pEC50 [5],pEC50 [6]
"C=CCn1c(=O)c2cnc(Nc3ccc4[nH]nc(C)c4c3)nc2n1-c1cccc(OC2CCN(C)CC2)n1 [Compound 355, 2-allyl-6-((3-methyl-1H-indazol-5-yl)amino)-1-(6-((1-methylpiperidin-4-yl)oxy)pyridin-2-yl)-1,2-dihydro-3H-pyrazolo[3,4-d]pyrimidin-3-one]",> 8.00,> 7.00,> 7.70,6.30 to 6.70,,
"C=CCn1c(=O)c2cnc(Nc3ccc(Br)cc3)nc2n1-c1cccc(OC2CCN(C)CC2)n1 [Compound 370, 2-allyl-6-(p-bromophenylamino)-1-[6-(1-methyl-4-piperidyloxy)-2-pyridyl]-1,2-dihydro-3H-1,2,5,7-tetraazainden-3-one]",> 8.00,> 7.00,> 7.70,6.30 to 6.70,,
"[2H]C([2H])([2H])N1CCC(Oc2nccc(-n3c4nc(Nc5ccc6c(cnn6C)c5)ncc4c(=O)n3CC=C)n2)CC1 [Compound 383, 2-allyl-6-(1-methyl-1H-indazol-5-ylamino)-1-(2-{1-[(^2H3)methyl]-4-piperidyloxy}-4-pyrimidinyl)-1,2-dihydro-3H-1,2,5,7-tetraazainden-3-one]",> 8.00,,7.00 to 7.70,6.00 to 6.30,,
"C=CCn1c(=O)c2cnc(Nc3ccc4cnn(C)c4c3)nc2n1-c1cccc(OC2CCN(C)CC2)n1 [Compound 389, 2-allyl-6-((1-methyl-1H-indazol-6-yl)amino)-1-(6-((1-methylpiperidin-4-yl)oxy)pyridin-2-yl)-1,2-dihydro-3H-pyrazolo[3,4-d]pyrimidin-3-one]",> 8.00,> 7.00,7.00 to 7.70,> 6.70,,
"C=CCn1c(=O)c2cnc(Nc3ccc4nn(C(C)(C)C)cc4c3)nc2n1-c1cccc(OC2CCNCC2)n1 [Compound 395, 2-allyl-6-((2-(tert-butyl)-2H-indazol-5-yl)amino)-1-(6-(piperidin-4-yloxy)pyridin-2-yl)-1,2-dihydro-3H-pyrazolo[3,4-d]pyrimidin-3-one]",> 8.00,> 7.00,> 7.70,< 6.00,,
"C=CCn1c(=O)c2cnc(Nc3ccc(OCCF)nc3)nc2n1-c1cccc(OC2CCN(C)CC2)n1 [Compound 399, 2-allyl-6-((6-(2-fluoroethoxy)pyridin-3-yl)amino)-1-(6-((1-methylpiperidin-4-yl)oxy)pyridin-2-yl)-1,2-dihydro-3H-pyrazolo[3,4-d]pyrimidin-3-one]",> 8.00,> 7.00,> 7.70,> 6.70,,

# Other lines, results leading:
pIC50 [1],pEC50 [2],pIC50 [3],pEC50 [4],pEC50 [5],pEC50 [6],SMILES
> 8.00,> 7.00,7.00 to 7.70,6.00 to 6.30,,,"C=CCn1c(=O)c2cnc(Nc3ccc4c(cnn4C)c3)nc2n1-c1cccc(OC2CCCN(C)CC2)n1 (single isomer, unassigned) [Compound 374]"
> 8.00,6.30 to 7.00,7.00 to 7.70,,< 6.00,6.00 to 6.30,"C=CCn1c(=O)c2cnc(Nc3ccc4c(c3)ncn4C)nc2n1-c1cccc(OC2CCNCC2)n1 [Compound 319, 2-allyl-6-((1-methyl-1H-benzo[d]imidazol-5-yl)amino)-1-(6-(piperidin-4-yloxy)pyridin-2-yl)-1,2-dihydro-3H-pyrazolo[3,4-d]pyrimidin-3-one]"
> 8.00,> 7.00,7.00 to 7.70,,6.00 to 6.30,≥ 7.00,"C=CCn1c(=O)c2cnc(Nc3ccc4c(cnn4C)c3)nc2n1-c1cccc(OC2CCN(CC)CC2)n1 [Compound 321, 2-allyl-1-[6-(1-ethyl-4-piperidyloxy)-2-pyridyl]-6-(1-methyl-1H-indazol-5-ylamino)-1,2-dihydro-3H-1,2,5,7-tetraazainden-3-one]"
> 8.00,> 7.00,7.00 to 7.70,6.30 to 6.70,,,"C=CCn1c(=O)c2cnc(Nc3ccc4ccncc4c3)nc2n1-c1cccc(OC2CCN(C)CC2)n1 [Compound 326, 2-allyl-6-(7-isoquinolylamino)-1-[6-(1-methyl-4-piperidyloxy)-2-pyridyl]-1,2-dihydro-3H-1,2,5,7-tetraazainden-3-one]"
